Laboratory results: patent US20150004134A1, “TREATMENT OF CANCER WITH HETEROCYCLIC INHIBITORS OF GLUTAMINASE” (Calithera Biosciences, Inc., priority 2012, published 2015)

What follows are compounds tested on P493-6 (myc "on") cells (assay: Cell Proliferation Assay). Details: P493-6, 72 h, read-out: Cell prolif P493 72 h IC50, P493-6 cells, 72 h.
Format: cell-based
Summary of the method: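 Read-out: either Cell Titer Glo or Guava Viacount flow analysis after 72 h compound treatment of myc-on P493-6 cells (10,000/well, RPMI with 10% FBS) at 37 °C. DMSO held at 0.5% final.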
With `CN(C)Cc1cccc(CC(=O)Nc2nnc(CCCCc3nnc(NC(=O)Cc4ccccc4)s3)s2)c1` [Compound 394] the IC50 was 1200 nM.
`COC(C(=O)Nc1nnc(CCCCc2ccc(NC(=O)Cc3cccc(CNC(=O)OC(C)(C)C)c3)nn2)s1)c1ccccc1` (centres unmarked) [Compound 509] gave an IC50 of 9 nM.
`COc1cc(CC(=O)Nc2ccc(CCCCc3nnc(NC(=O)Cc4ccccc4)s3)nn2)ccc1F` [Compound 537] gave an IC50 of 76 nM.
Compound `CC(C)(C)OC(=O)Nc1cccc(CC(=O)Nc2nnc(CCCCc3ccc(NC(=O)Cc4ccccc4)nn3)s2)c1` [Compound 399] has an IC50 of 26 nM.
In the case of `O=C(Cc1ccccc1)Nc1ccc(CCCCc2nnc(NC(=O)Cc3cccc(OCc4ccccn4)c3)s2)nn1` [Compound 480], the IC50 is reported as 6300 nM.
Compound `O=C(Cc1ccccc1F)Nc1ccc(CCCCc2nnc(NC(=O)Cc3ccccc3F)s2)nn1` [Compound 534] has an IC50 of 44 nM.
Work on `O=C(Cc1ccccc1)NCc1cccc(CC(=O)Nc2nnc(CCCCc3ccc(NC(=O)Cc4ccccc4)nn3)s2)c1` [Compound 435] yielded an IC50 of 6 nM.
In the case of `CC(C)Cc1ccc(C(C)C(=O)Nc2nnc(CCCCc3ccc(NC(=O)Cc4ccccc4)nn3)s2)cc1` (centres unmarked) [Compound 557], the IC50 is reported as 120 nM.
`O=C(Cc1ccccc1)Nc1ccc(CCCCc2nnc(NC(=O)Cc3cccc(OC(F)F)c3)s2)nn1` [Compound 664] gave an IC50 of 60 nM.
With `Cc1nnc(Cc2cccc(CC(=O)Nc3ccc(CCCCc4nnc(NC(=O)Cc5ccccc5)s4)nn3)c2)o1` [Compound 652, 2-(3-((5-methyl-1,3,4-oxadiazol-2-yl)methyl)phenyl)-N-(6-(4-(5-(2-phenylacetamido)-1,3,4-thiadiazol-2-yl)butyl)pyridazin-3-yl)acetamide] the IC50 was 39 nM.
Compound `O=C(CN1CCOCC1)NCc1ccc(CC(=O)Nc2nnc(CCCCc3ccc(NC(=O)Cc4ccccc4)nn3)s2)cc1` [Compound 442] has an IC50 of 25 nM.
Compound `CC(C)(C)OC(=O)NCc1cccc(CC(=O)Nc2nnc(CCCCc3ccc(NC(=O)C4(C)COC(C)(C)OC4)nn3)s2)c1` [Compound 529] has an IC50 of 160 nM.
`Nc1ccc(CCCCc2nnc(NC(=O)C(O)c3cccc(Cl)c3)s2)nn1` (centres unmarked) [Compound 411] gave an IC50 of 740 nM.
Work on `O=C(Cc1ccccc1F)Nc1ccc(CCCCc2nnc(NC(=O)Cc3ccccc3Cl)s2)nn1` [Compound 566] yielded an IC50 of 15 nM.
`O=C(Cc1cccnc1)Nc1nnc(CCSCCc2nnc(NC(=O)Cc3cccnc3)s2)s1` [Compound 638] was tested, and the IC50 was 5700 nM.
In the case of `Nc1cccc(CC(=O)Nc2nnc(CCCCc3ccc(NC(=O)Cc4ccccc4)nn3)s2)c1` [Compound 409], the IC50 is reported as 37 nM.
Compound `O=C(Cc1cccc(Cl)c1)Nc1ccc(CCCCc2nnc(NC(=O)C(O)c3cccc(Cl)c3)s2)nn1` (centres unmarked) [Compound 448] has an IC50 of 51 nM.

Same assay, conditions: P493-6, 72 h, read-out: Cell prolif P493 72 h IC50, P493 cells, 72 h
In the case of `O=C(Cc1cccs1)Nc1nnc(CCSCCc2nnc(NC(=O)Cc3cccs3)s2)s1` [Compound 116], the IC50 is reported as 720 nM.
Work on `COc1cccc(C(CO)C(=O)Nc2nnc(CCCCc3nnc(NC(=O)C(CO)c4cccc(OC)c4)s3)s2)c1` (centres unmarked) [Compound 257] yielded an IC50 of 73 nM.
Work on `O=C(CN1CCOCC1)Nc1nnc(CCSCCc2nnc(NC(=O)CN3CCOCC3)s2)s1` [Compound 12] yielded an IC50 of 36000 nM.
Compound `O=C(Cc1ccccc1)Nc1nnc(CCCCc2nnc(NC(=O)C(CO)c3ccccc3)s2)s1` (centres unmarked) [Compound 316] has an IC50 of 75 nM.
In the case of `O=C(Cc1ccccc1)Nc1nnc(CCSCc2nnc(NC(=O)Cc3ccccn3)s2)s1` [Compound 373], the IC50 is reported as 280 nM.
With `CC(C)(C)OC(=O)Nc1ccc(CC(=O)Nc2nnc(CCSCCc3nnc(NC(=O)Cc4ccc(NC(=O)OC(C)(C)C)cc4)s3)s2)cc1` [Compound 185] the IC50 was 90 nM.
`O=C(Cc1ccccc1)Nc1nnc(CCCCc2nnc(NC(=O)C(O)c3cccc(Cl)c3)s2)s1` (centres unmarked) [Compound 527] was tested, and the IC50 was 98 nM.
For `COc1ccc2c(c1)CC(C(=O)Nc1nnc(CCCCc3nnc(NC(=O)C4Cc5cc(OC)ccc5O4)s3)s1)O2` (centres unmarked) [Compound 121], the IC50 was 3500 nM.
In the case of `O=C(CCN1CCOCC1)OCC(C(=O)Nc1nnc(CCCCc2nnc(NC(=O)C(CO)c3ccccc3)s2)s1)c1ccccc1` (centres unmarked) [Compound 228, 3-((5-{4-[5-(3-hydroxy-2-phenylpropanamido)-1,3,4-thiadiazol-2-yl]butyl}-1,3,4-thiadiazol-2-yl)amino)-3-oxo-2-phenylpropyl 3-morpholinopropanoate], the IC50 is reported as 130 nM.
`C[C@@H](O)C(=O)Nc1nnc(CCCCc2nnc(NC(=O)Cc3ccccc3)s2)s1` [Compound 322] was tested, and the IC50 was 3000 nM.
For `O=C(Cc1ccc2ncccc2c1)Nc1nnc(CCSCCc2nnc(NC(=O)Cc3ccc4ncccc4c3)s2)s1` [Compound 268], the IC50 was 5400 nM.
With `O=C(Cn1ccc2ccccc21)Nc1nnc(CCSCCc2nnc(NC(=O)Cn3ccc4ccccc43)s2)s1` [Compound 213] the IC50 was 4400 nM.
`Nc1ccc(CC(=O)Nc2nnc(CCCCc3nnc(NC(=O)Cc4ccc(N)cc4)s3)s2)cc1` [Compound 196] gave an IC50 of 610 nM.
Work on `CC(CO)(CO)C(=O)Nc1nnc(CCCCc2nnc(NC(=O)Cc3cccc(F)c3)s2)s1` [Compound 152, N,N′-(5-(4-(5-(2-(3-fluorophenyl)acetamido)-1,3,4-thiadiazol-2-yl)butyl)-1,3,4-thiadiazol-2-yl)-3-hydroxy-2-(hydroxymethyl)-2-methylpropanamide] yielded an IC50 of 1100 nM.
`O=C(Cc1ccccc1)Nc1ccc(CCCCc2nnc(NC(=O)[C@@H](O)c3ccccc3)s2)nn1` [Compound 350] showed an IC50 of 29 nM.
`O=C(Cc1cccc(Br)c1)Nc1nnc(CCSCCc2nnc(NC(=O)Cc3cccc(Br)c3)s2)s1` [Compound 270] showed an IC50 of 850 nM.
Work on `CN(C)c1ccc(CC(=O)Nc2nnc(CCCCc3nnc(NC(=O)Cc4ccc(N(C)C)cc4)s3)s2)cc1` [Compound 164] yielded an IC50 of 130 nM.
`CC(C)(CCc1nnc(NC(=O)Cc2ccccc2)s1)CCc1nnc(NC(=O)Cc2ccccc2)s1` [Compound 10] was tested, and the IC50 was greater than 50000 nM.
For `O=C(Nc1nnc(CCCCc2nnc(NC(=O)C3(c4ccccc4)CC3)s2)s1)C1(c2ccccc2)CC1` [Compound 168], the IC50 was greater than 50000 nM.
`CC(=O)OCC(=O)Nc1nnc(CCSCCc2nnc(NC(=O)COC(C)=O)s2)s1` [Compound 5] showed an IC50 greater than 50000 nM.
Work on `COCCOC(C(=O)Nc1nnc(CCCCc2nnc(NC(=O)C(OCCOC)c3ccccc3)s2)s1)c1ccccc1` (centres unmarked) [Compound 203] yielded an IC50 of 1700 nM.
In the case of `CC1(C)OC(=O)[C@@H](CC(=O)Nc2nnc(CCCCc3nnc(NC(=O)C[C@H]4OC(C)(C)OC4=O)s3)s2)O1` [Compound 103], the IC50 is reported as greater than 50000 nM.
Work on `O=C(Cc1ccccc1)Nc1ccc(CCCCc2nnc(NC(=O)C(O)c3ccccc3)s2)nn1` (centres unmarked) [Compound 315] yielded an IC50 of 35 nM.
`O=C(Cc1ccccc1)Nc1nnc(CCSCc2nnc(NC(=O)C(O)c3cccc(Cl)c3)s2)s1` (centres unmarked) [Compound 376] showed an IC50 of 91 nM.
With `O=C1CC(C(=O)Nc2nnc(CCCCc3nnc(NC(=O)C4CC(=O)c5ccccc54)s3)s2)c2ccccc21` (centres unmarked) [Compound 64] the IC50 was 230 nM.
`O=C(Cc1cccc(F)c1)Nc1nnc(CCSCCc2nnc(NC(=O)Cc3cccc(F)c3)s2)s1` [Compound 102] was tested, and the IC50 was 1400 nM.
`O=C(Cc1ccsc1)Nc1nnc(CCCCc2nnc(NC(=O)Cc3ccsc3)s2)s1` [Compound 88] was tested, and the IC50 was 120 nM.
Work on `C[C@H](NC(=O)OC(C)(C)C)C(=O)Nc1nnc(CCSCCc2nnc(NC(=O)[C@H](C)NC(=O)OC(C)(C)C)s2)s1` [Compound 49] yielded an IC50 of 17000 nM.
With `COCCC(=O)Nc1nnc(CCCCc2nnc(NC(=O)CCOC)s2)s1` [Compound 100] the IC50 was 9000 nM.
Compound `C=CCCC(=O)Nc1nnc(CCSCCc2nnc(NC(=O)CCC=C)s2)s1` [Compound 18] has an IC50 of 8200 nM.
`CC(=O)OCC(=O)Nc1nnc(CCSCCc2nnc(NC(=O)Cc3ccccc3)s2)s1` [Compound 26] gave an IC50 of 700 nM.
Work on `O=C(Cc1ccccn1)Nc1nnc(CCSCCc2nnc(NC(=O)Cc3ccccn3)s2)s1` [Compound 308] yielded an IC50 of 1200 nM.
Compound `O=C(Cc1cccs1)Nc1nnc(CCSCc2nnc(NC(=O)Cc3cccs3)s2)s1` [Compound 237] has an IC50 of 250 nM.
For `CC(C(=O)Nc1nnc(CCSCCc2nnc(N)s2)s1)c1ccccc1` (centres unmarked) [Compound 20], the IC50 was 2600 nM.
For `O=C(C[C@@H](O)c1ccccc1)Nc1nnc(CCCCc2nnc(NC(=O)C[C@@H](O)c3ccccc3)s2)s1` [Compound 127], the IC50 was 450 nM.
`O=C(Nc1nnc(CCCCc2nnc(NC(=O)C3COc4ccccc4O3)s2)s1)C1COc2ccccc2O1` (centres unmarked) [Compound 52] showed an IC50 of 30000 nM.
`CC(C)(C)OC(=O)N1CCCC(CC(=O)Nc2nnc(CCSCCc3nnc(NC(=O)CC4CCCN(C(=O)OC(C)(C)C)C4)s3)s2)C1` (centres unmarked) [Compound 112] was tested, and the IC50 was 890 nM.
`C[C@H](O)C(=O)Nc1nnc(CCCCc2nnc(NC(=O)Cc3ccccc3)s2)s1` [Compound 321] was tested, and the IC50 was 2600 nM.
In the case of `CC(=O)OC(C(=O)Nc1nnc(CCCCc2nnc(NC(=O)C(OC(C)=O)c3ccccc3)s2)s1)c1ccccc1` (centres unmarked) [Compound 173], the IC50 is reported as 760 nM.
`O=C(Nc1nnc(CCSCCc2nnc(NC(=O)C3Cc4ccccc4O3)s2)s1)C1Cc2ccccc2O1` (centres unmarked) [Compound 50] showed an IC50 of 8200 nM.
In the case of `CCC(C)C(=O)Nc1nnc(CCSCCc2nnc(NC(=O)C(C)CC)s2)s1` (centres unmarked) [Compound 105], the IC50 is reported as 119000 nM.
`O=C(Nc1nnc(CCSCCc2nnc(NC(=O)[C@@H]3CCCN3C(=O)C(F)(F)F)s2)s1)[C@@H]1CCCN1C(=O)C(F)(F)F` [Compound 22] was tested, and the IC50 was greater than 50000 nM.
`O=C(Nc1nnc(CCSCCc2nnc(NC(=O)C3CCCC3)s2)s1)C1CCCC1` [Compound 40] showed an IC50 of 560 nM.
Compound `O=C(CC1CCNCC1)Nc1nnc(CCSCCc2nnc(NC(=O)CC3CCNCC3)s2)s1` [Compound 129] has an IC50 greater than 50000 nM.
For `N[C@@H](C(=O)Nc1nnc(CCCCc2nnc(NC(=O)[C@H](N)c3ccccc3)s2)s1)c1ccccc1` [Compound 186], the IC50 was 13000 nM.
`O=C(Cc1ccccc1F)Nc1nnc(CCSCCc2nnc(NC(=O)Cc3ccccc3F)s2)s1` [Compound 294] gave an IC50 of 1100 nM.
For `O=C(Cc1ccccc1)Nc1nnc(CCSCCc2nnc(NC(=O)Cc3ccccc3)s2)s1` [Compound 1, N,N′-(5,5′-(thiobis(ethane-2,1-diyl))bis(1,3,4-thiadiazole-5,2-diyl))bis(2-phenylacetamide)], the IC50 was 470 nM.

Same assay, conditions: P493-6, read-out: Cell prolif P493 72 h IC50; P493 cells, 72 h
In the case of `O=C(Nc1nnc(CCSCCc2nnc(NC(=O)c3ccccc3)s2)s1)c1ccccc1` [Compound 2], the IC50 is reported as 630 nM.
